# In patent publication US20080234262A1 (Wyeth, priority 2007, published 2008):
# pIC50: −log10 of the molar value.
# Key:
# breast line MDA468 = assay: In vitro cell culture growth assay (MTS), MDA468; type: cell-based, human; conditions: Homo sapiens, 72 h, MDA468 cells, three days after drug treatment
# Procedure, shortened: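 Three-day drug treatment starting 1 day post-plating; viable cells quantified via MTS metabolism (A490); effect normalised to in-plate vehicle controls as % growth.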
# prostate line LNCap = assay: In vitro cell culture growth assay (MTS), LNCap; type: cell-based, human; conditions: Homo sapiens, LNCaP, 72 h, LNCap cells, three days after drug treatment;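 note: viable cell density read by absorbance at 490 nm, growth expressed as percent of vehicle-treated cells on the same plate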
# PI3K = PI3K (Homo sapiens, UniProt P42336); assay: Fluorescence polarization assay for PI3K; type: biochemical; conditions: PI3Kα; read-out: PI3Kα IC50;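 note: PI3K kinase reaction on PIP2 with ATP, 30-60 min, product sensed by GST-GRP with red probe in fluorescence polarization (mP), controls without enzyme and at zero time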
# PI3K, sequence (P42336 whole entry): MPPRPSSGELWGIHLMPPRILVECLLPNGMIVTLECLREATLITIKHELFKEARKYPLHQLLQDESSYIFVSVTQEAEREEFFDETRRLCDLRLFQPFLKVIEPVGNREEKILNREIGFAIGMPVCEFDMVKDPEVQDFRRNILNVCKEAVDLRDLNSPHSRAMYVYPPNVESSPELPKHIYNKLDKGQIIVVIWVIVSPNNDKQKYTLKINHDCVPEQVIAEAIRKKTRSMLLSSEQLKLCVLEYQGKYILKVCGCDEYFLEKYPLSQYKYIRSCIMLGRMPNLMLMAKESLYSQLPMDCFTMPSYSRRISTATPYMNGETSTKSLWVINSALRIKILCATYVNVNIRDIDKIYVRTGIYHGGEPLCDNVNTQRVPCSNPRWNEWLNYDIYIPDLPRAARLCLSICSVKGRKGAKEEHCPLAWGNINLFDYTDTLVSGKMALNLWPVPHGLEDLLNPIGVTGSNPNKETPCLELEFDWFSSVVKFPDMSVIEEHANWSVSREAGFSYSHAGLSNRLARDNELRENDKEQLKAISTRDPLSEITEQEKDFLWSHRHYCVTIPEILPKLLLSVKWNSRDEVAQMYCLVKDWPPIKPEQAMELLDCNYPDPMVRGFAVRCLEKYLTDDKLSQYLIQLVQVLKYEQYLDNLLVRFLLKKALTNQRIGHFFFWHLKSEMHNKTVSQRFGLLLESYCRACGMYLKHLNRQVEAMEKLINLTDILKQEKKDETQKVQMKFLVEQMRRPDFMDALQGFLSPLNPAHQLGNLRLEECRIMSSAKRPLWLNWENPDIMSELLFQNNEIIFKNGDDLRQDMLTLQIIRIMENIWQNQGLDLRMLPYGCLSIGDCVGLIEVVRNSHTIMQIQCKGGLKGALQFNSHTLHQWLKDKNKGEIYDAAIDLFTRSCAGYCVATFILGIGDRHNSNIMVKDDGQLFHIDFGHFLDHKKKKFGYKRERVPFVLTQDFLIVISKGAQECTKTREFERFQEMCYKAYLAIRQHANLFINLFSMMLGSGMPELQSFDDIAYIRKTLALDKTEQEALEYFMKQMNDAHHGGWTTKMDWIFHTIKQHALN
# PI3K, sequence (P27986 whole entry partner): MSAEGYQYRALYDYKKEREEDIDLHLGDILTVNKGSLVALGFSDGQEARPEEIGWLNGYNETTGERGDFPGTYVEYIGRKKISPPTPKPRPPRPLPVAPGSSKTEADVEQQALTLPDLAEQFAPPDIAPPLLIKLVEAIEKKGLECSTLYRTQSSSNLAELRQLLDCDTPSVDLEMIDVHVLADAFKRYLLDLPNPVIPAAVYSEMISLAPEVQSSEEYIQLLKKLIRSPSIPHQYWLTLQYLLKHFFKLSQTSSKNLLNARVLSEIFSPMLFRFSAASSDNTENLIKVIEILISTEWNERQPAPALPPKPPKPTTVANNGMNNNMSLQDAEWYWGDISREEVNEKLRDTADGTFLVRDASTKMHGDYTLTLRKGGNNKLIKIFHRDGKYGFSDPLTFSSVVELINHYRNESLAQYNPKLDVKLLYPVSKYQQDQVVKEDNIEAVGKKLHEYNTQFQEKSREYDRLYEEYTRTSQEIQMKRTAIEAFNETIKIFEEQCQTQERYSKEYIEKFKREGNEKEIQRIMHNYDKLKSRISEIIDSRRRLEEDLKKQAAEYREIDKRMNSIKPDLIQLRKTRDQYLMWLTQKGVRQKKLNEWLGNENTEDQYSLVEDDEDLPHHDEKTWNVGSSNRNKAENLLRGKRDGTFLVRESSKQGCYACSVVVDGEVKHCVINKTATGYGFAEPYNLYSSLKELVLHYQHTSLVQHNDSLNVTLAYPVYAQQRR
Compound,pIC50 (prostate line LNCap),pIC50 (PI3K),pIC50 (breast line MDA468)
"CNC(=O)Nc1ccc(-c2nc(N3CCOCC3)c3cnn(C4CCN(C(=O)OCCBr)CC4)c3n2)cc1 [Compound 804, 2-bromoethyl 4-(6-{4-[(methylcarbamoyl)amino]phenyl}-4-morpholin-4-yl-1H-pyrazolo[3,4-d]pyrimidin-1-yl)piperidine-1-carboxylate]",6.15,6.85,6.10
"CCOC(=O)N1CCC(n2ncc3c(N4CCOCC4)nc(-c4ccc(NC(=O)OC)cc4)nc32)CC1 [Compound 805, ethyl 4-(6-{4-[(methoxycarbonyl)amino]phenyl}-4-morpholin-4-yl-1H-pyrazolo[3,4-d]pyrimidin-1-yl)piperidine-1-carboxylate]",6.29,5.57,6.10
"COC(=O)Nc1ccc(-c2nc(N3CCOCC3)c3cnn(C4CCN(C(=O)OC(C)C)CC4)c3n2)cc1 [Compound 806, isopropyl 4-(6-{4-[(methoxycarbonyl)amino]phenyl}-4-morpholin-4-yl-1H-pyrazolo[3,4-d]pyrimidin-1-yl)piperidine-1-carboxylate]",6.15,5.34,6.05
"CCSC(=O)N1CCC(n2ncc3c(N4CCOCC4)nc(-c4ccc(NC(=O)OC)cc4)nc32)CC1 [Compound 807, S-ethyl 4-(6-{4-[(methoxycarbonyl)amino]phenyl}-4-morpholin-4-yl-1H-pyrazolo[3,4-d]pyrimidin-1-yl)piperidine-1-carbothioate]",5.85,5.35,5.10
"COC(=O)Nc1ccc(-c2nc(N3CCOCC3)c3cnn(C4CCN(C(=O)N(C)C)CC4)c3n2)cc1 [Compound 808, methyl (4-{1-[1-(dimethylcarbamoyl)piperidin-4-yl]-4-morpholin-4-yl-1H-pyrazolo[3,4-d]pyrimidin-6-yl}phenyl)carbamate]",6.37,5.58,6.16
"COC(=O)Nc1ccc(-c2nc(N3CCOCC3)c3cnn(C4CCN(C(C)=O)CC4)c3n2)cc1 [Compound 809, methyl {4-[1-(1-acetylpiperidin-4-yl)-4-morpholin-4-yl-1H-pyrazolo[3,4-d]pyrimidin-6-yl]phenyl}carbamate]",5.64,5.68,5.35
"COC(=O)Nc1ccc(-c2nc(N3CCOCC3)c3cnn(C4CCN(C(=O)C(C)C)CC4)c3n2)cc1 [Compound 810, methyl {4-[1-(1-isobutyrylpiperidin-4-yl)-4-morpholin-4-yl-1H-pyrazolo[3,4-d]pyrimidin-6-yl]phenyl}carbamate]",5.89,5.65,5.52
"COC(=O)Nc1ccc(-c2nc(N3CCOCC3)c3cnn(C4CCN(C(=O)C(F)(F)F)CC4)c3n2)cc1 [Compound 811, methyl (4-{4-morpholin-4-yl-1-[1-(trifluoroacetyl)piperidin-4-yl]-1H-pyrazolo[3,4-d]pyrimidin-6-yl}phenyl)carbamate]",5.72,5.87,5.34
"CCNC(=S)N1CCC(n2ncc3c(N4CCOCC4)nc(-c4ccc(NC(=O)OC)cc4)nc32)CC1 [Compound 812, methyl [4-(1-{1-[(ethylamino)carbonothioyl]piperidin-4-yl}-4-morpholin-4-yl-1H-pyrazolo[3,4-d]pyrimidin-6-yl)phenyl]carbamate]",5.62,6.16,5.52
"CNC(=O)N1CCC(n2ncc3c(N4CCOCC4)nc(-c4ccc(NC(=O)OC)cc4)nc32)CC1 [Compound 813, methyl (4-{1-[1-(methylcarbamoyl)piperidin-4-yl]-4-morpholin-4-yl-1H-pyrazolo[3,4-d]pyrimidin-6-yl}phenyl)carbamate]",5.65,5.71,5.36
"CCOC(=O)N1CCC(n2ncc3c(N4CCOCC4)nc(-c4ccc(NC(=O)Nc5ccccc5)cc4)nc32)CC1 [Compound 814, ethyl 4-(6-{4-[(anilinocarbonyl)amino]phenyl}-4-morpholin-4-yl-1H-pyrazolo[3,4-d]pyrimidin-1-yl)piperidine-1-carboxylate]",> 7.57,7.47,> 7.57
"CCOC(=O)N1CCC(n2ncc3c(N4CCOCC4)nc(-c4ccc(NC(=O)Nc5ccccn5)cc4)nc32)CC1 [Compound 815, ethyl 4-(4-morpholin-4-yl-6-{4-[(pyridin-2-ylcarbamoyl)amino]phenyl}-1H-pyrazolo[3,4-d]pyrimidin-1-yl)piperidine-1-carboxylate]",5.82,5.42,5.30
"CCOC(=O)N1CCC(n2ncc3c(N4CCOCC4)nc(-c4ccc(NC(=O)Nc5cccnc5)cc4)nc32)CC1 [Compound 816, ethyl 4-(4-morpholin-4-yl-6-{4-[(pyridin-3-ylcarbamoyl)amino]phenyl}-1H-pyrazolo[3,4-d]pyrimidin-1-yl)piperidine-1-carboxylate]",> 7.57,7.22,> 7.57
"CCOC(=O)N1CCC(n2ncc3c(N4CCOCC4)nc(-c4ccc(NC(=O)Nc5ccncc5)cc4)nc32)CC1 [Compound 817, ethyl 4-(4-morpholin-4-yl-6-{4-[(pyridin-4-ylcarbamoyl)amino]phenyl}-1H-pyrazolo[3,4-d]pyrimidin-1-yl)piperidine-1-carboxylate]",> 7.57,7.40,> 7.57
"CCOC(=O)N1CCC(n2ncc3c(N4CCOCC4)nc(-c4ccc(NC(=O)NCCO)cc4)nc32)CC1 [Compound 818, ethyl 4-[6-(4-{[(2-hydroxyethyl)carbamoyl]amino}phenyl)-4-morpholin-4-yl-1H-pyrazolo[3,4-d]pyrimidin-1-yl]piperidine-1-carboxylate]",6.49,6.35,6.60
"CCOC(=O)N1CCC(n2ncc3c(N4CCOCC4)nc(-c4ccc(NC(=O)NCCF)cc4)nc32)CC1 [Compound 819, ethyl 4-[6-(4-{[(2-fluoroethyl)carbamoyl]amino}phenyl)-4-morpholin-4-yl-1H-pyrazolo[3,4-d]pyrimidin-1-yl]piperidine-1-carboxylate]",> 7.57,6.10,7.15
"CCNC(=O)Nc1ccc(-c2nc(N3CCOCC3)c3cnn(C4CCN(C(=O)OCC)CC4)c3n2)cc1 [Compound 820, ethyl 4-(6-{4-[(ethylcarbamoyl)amino]phenyl}-4-morpholin-4-yl-1H-pyrazolo[3,4-d]pyrimidin-1-yl)piperidine-1-carboxylate]",> 7.57,6.15,6.89

# Now from value to compound, other results behind:
pIC50 (prostate line LNCap),pIC50 (PI3K),Compound,pIC50 (breast line MDA468)
> 7.57,5.95,"CCOC(=O)N1CCC(n2ncc3c(N4CCOCC4)nc(-c4ccc(NC(=O)NC5CC5)cc4)nc32)CC1 [Compound 821, ethyl 4-(6-{4-[(cyclopropylcarbamoyl)amino]phenyl}-4-morpholin-4-yl-1H-pyrazolo[3,4-d]pyrimidin-1-yl)piperidine-1-carboxylate]",6.85
6.92,5.91,"CCNC(=O)Nc1ccc(-c2nc(N3CCOCC3)c3cnn(C4CCN(C(=O)C(C)C)CC4)c3n2)cc1 [Compound 822, 1-ethyl-3-{4-[1-(1-isobutyrylpiperidin-4-yl)-4-morpholin-4-yl-1H-pyrazolo[3,4-d]pyrimidin-6-yl]phenyl}urea]",6.30
5.46,6.24,"CC(C)C(=O)N1CCC(n2ncc3c(N4CCOCC4)nc(-c4ccc(NC(=O)NCCO)cc4)nc32)CC1 [Compound 823, 1-(2-hydroxyethyl)-3-{4-[1-(1-isobutyrylpiperidin-4-yl)-4-morpholin-4-yl-1H-pyrazolo[3,4-d]pyrimidin-6-yl]phenyl}urea]",6.49
6.96,5.69,"CC(C)C(=O)N1CCC(n2ncc3c(N4CCOCC4)nc(-c4ccc(NC(=O)NC5CC5)cc4)nc32)CC1 [Compound 824, 1-cyclopropyl-3-{4-[1-(1-isobutyrylpiperidin-4-yl)-4-morpholin-4-yl-1H-pyrazolo[3,4-d]pyrimidin-6-yl]phenyl}urea]",6.15
6.82,5.78,"CC(C)C(=O)N1CCC(n2ncc3c(N4CCOCC4)nc(-c4ccc(NC(=O)NCCF)cc4)nc32)CC1 [Compound 825, 1-(2-fluoroethyl)-3-{4-[1-(1-isobutyrylpiperidin-4-yl)-4-morpholin-4-yl-1H-pyrazolo[3,4-d]pyrimidin-6-yl]phenyl}urea]",6.21
7.52,7.54,"CC(C)C(=O)N1CCC(n2ncc3c(N4CCOCC4)nc(-c4ccc(NC(=O)Nc5ccccc5)cc4)nc32)CC1 [Compound 826, 1-{4-[1-(1-isobutyrylpiperidin-4-yl)-4-morpholin-4-yl-1H-pyrazolo[3,4-d]pyrimidin-6-yl]phenyl}-3-phenylurea]",6.96
6.22,5.65,"CC(C)C(=O)N1CCC(n2ncc3c(N4CCOCC4)nc(-c4ccc(NC(=O)Nc5ccccn5)cc4)nc32)CC1 [Compound 827, 1-{4-[1-(1-isobutyrylpiperidin-4-yl)-4-morpholin-4-yl-1H-pyrazolo[3,4-d]pyrimidin-6-yl]phenyl}-3-pyridin-2-ylurea]",4.80
6.92,7.30,"CC(C)C(=O)N1CCC(n2ncc3c(N4CCOCC4)nc(-c4ccc(NC(=O)Nc5cccnc5)cc4)nc32)CC1 [Compound 828, 1-{4-[1-(1-isobutyrylpiperidin-4-yl)-4-morpholin-4-yl-1H-pyrazolo[3,4-d]pyrimidin-6-yl]phenyl}-3-pyridin-3-ylurea]",6.48
7.60,7.42,"CC(C)C(=O)N1CCC(n2ncc3c(N4CCOCC4)nc(-c4ccc(NC(=O)Nc5ccncc5)cc4)nc32)CC1 [Compound 829, 1-{4-[1-(1-isobutyrylpiperidin-4-yl)-4-morpholin-4-yl-1H-pyrazolo[3,4-d]pyrimidin-6-yl]phenyl}-3-pyridin-4-ylurea]",7.54
